# Assay results reported in patent US6355799B1, “Substituted benzene compounds, process for their preparation, and herbicidal and defoliant compositions containing them” (ISK Americas Incorporated, priority 1997, dated 2002).
# Columns and labels:
# Format in all cases: in vivo
# [1] = system: redroot pigweed (Amaranthus retroflexus, AMARE); assay: Pre-emerge test, greenhouse herbicide activity screening; settings: pre-emerge, phytotoxicity rating 0-100 at 14 days after application
# How it was run: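 Compounds in acetone were track-sprayed at 15-1000 g ai/ha (187 l/ha) on sandy loam pots: pre-emerge one day after seeding, post-emerge at 2-3 leaf stage with 0.25% v/v non-ionic surfactant. Phytotoxicity was rated 14 days later on a 0 (no damage) to 100 (complete death) scale.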
# [2] = system: barnyardgrass (Echinochloa crus-galli, ECHCG); assay: as above; settings: pre-emerge, phytotoxicity rating 0-100 at 14 days after application
# Text: (§1) A standard greenhouse herbicide activity screening system was used to evaluate the herbicidal efficacy and crop safety of these test compounds. Seven broadleaf weed species including redroot pigweed (Amaranthus retroflexus, AMARE, velvetleaf (Abutilon theophrasti, ABUTH), sicklepod (Cassia obtusifolia, CASOB), ivyleaf morningglory (Ipomoea hederacea, IPOHE), lambsquarters (Chenopodium album, CHEAL), common ragweed (Ambrosia artemisizfolia L., AMBEL), and cocklebur (Xanthium strumarium, XANST) were used as test species. Four grass weed species including green foxtail (Setaria viridis, SETVI), barnyardgrass (Echinochloa crus-galli, ECHCG), johnsongrass (Sorghum halepense, SORHA), and large crabgrass (Digitaria sanguinalis, DIGSA) were also used. In addition, three crop species, field corn (Zea mays L., var. Dekalb 535, CORN), soybean (Glycine max L., var. Pella 86, SOY), and is upland rice (Oryza sp., var. Tebonnet, RICE) were included.
# (§2) All plants were grown in 10 cm square plastic pots which were filled with a sandy loam soil mix. For pre-emerge tests, seeds were planted one day prior to application of the test compounds. For post-emerge tests, seeds were planted 8-21 days prior to the test to allow emergence and good foliage development prior to application of the test substances. At the time of the post-emerge application, plants of all species were usually at the 2-3 leaf stage of development.
# (§3) All test compounds Were dissolved in acetone and applied to the test units in a volume of 187 l /ha. Test materials were applied at rates ranging from 15 g ai/ha to 1000 g ai/ha using a track sprayer equipped with a TJ8001E even flow flat fan spray nozzle. Plants were arranged on a shelf so that the top of the canopy (post-emerge) or top of the soil surface (pre-emerge) was 40-45 cm below the nozzle. Pressurized air was used to force the test solution through the nozzle as it was mechanically advanced (via electrically driven chain drive) over the top of all test plants/pots. This application simulates a typical commercial field herbicide application.
# (§4) In the post-emerge test, a commercial non-ionic surfactant was also included (0.25% v/v) to enhance wetting of the leaf surfaces of target plants. Immediately after application, test units of the pre-emerge applications were watered at the soil surface to incorporate the test materials. Subsequently, these test units were bottom-watered. Post-emerge test units were always bottom-watered.
# (§5) At 14 days after application of the test materials, phytotoxicity ratings were recorded. A rating scale of 0-100 was used as previously described in Research Methods in Weed Science, 2nd edition, B. Truelove, Ed., Southern Weed Science Society, Auburn University, Auburn, Ala. 1977. Briefly, “0” corresponds to no damage and “100” corresponds to complete death of all plants in the test unit. This scale was used both to determine efficacy against weed species and damage to crop species. Herbicide activity data for various compounds of this invention, which are shown by compound No. in Tables 1-8, are shown in Tables 11 and 12.
# [3] = system: green foxtail (Setaria viridis, SETVI); assay: as above; settings: pre-emerge, phytotoxicity rating 0-100 at 14 days after application
# Text: as §1, §2, §3, §4, §5
# [4] = system: ivyleaf morningglory (Ipomoea hederacea, IPOHE); assay: as above; settings: pre-emerge, phytotoxicity rating 0-100 at 14 days after application
# Text: as §1, §2, §3, §4, §5
# [5] = system: lambsquarters (Chenopodium album, CHEAL); assay: as above; settings: pre-emerge, phytotoxicity rating 0-100 at 14 days after application
# Text: as §1, §2, §3, §4, §5
# [6] = system: large crabgrass (Digitaria sanguinalis, DIGSA); assay: as above; settings: pre-emerge, phytotoxicity rating 0-100 at 14 days after application
# Text: as §1, §2, §3, §4, §5
# [7] = system: sicklepod (Cassia obtusifolia, CASOB); assay: as above; settings: pre-emerge, phytotoxicity rating 0-100 at 14 days after application
# Text: as §1, §2, §3, §4, §5
# [8] = system: velvetleaf (Abutilon theophrasti, ABUTH); assay: as above; settings: pre-emerge, phytotoxicity rating 0-100 at 14 days after application
# Text: as §1, §2, §3, §4, §5
# [9] = system: field corn (Zea mays L., var. Dekalb 535, CORN); assay: Pre-emerge test, crop safety; settings: crop damage, pre-emerge, phytotoxicity rating 0-100 at 14 days after application
# How it was run: (§6)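 Rating: 0–100 visual injury, 14 DAA. Application: acetone, 187 l/ha, 15–1000 g ai/ha, flat-fan track sprayer with nozzle 40–45 cm above soil or canopy. Post-emerge runs used 0.25% v/v surfactant on 2–3 leaf plants.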
# [10] = system: upland rice (Oryza sp., var. Tebonnet, RICE); assay: Pre-emerge test, crop safety; settings: crop damage, pre-emerge, phytotoxicity rating 0-100 at 14 days after application
# How it was run: as §6
# [11] = system: barnyardgrass (Echinochloa crus-galli, ECHCG); assay: Post-emerge test, greenhouse herbicide activity screening; settings: post-emerge, phytotoxicity rating 0-100 at 14 days after application
# Text: as §1, §2, §3, §4, §5
# [12] = system: green foxtail (Setaria viridis, SETVI); assay: as above; settings: post-emerge, phytotoxicity rating 0-100 at 14 days after application
# Text: as §1, §2, §3, §4, §5
# [13] = system: ivyleaf morningglory (Ipomoea hederacea, IPOHE); assay: as above; settings: post-emerge, phytotoxicity rating 0-100 at 14 days after application
# Text: as §1, §2, §3, §4, §5
# [14] = system: lambsquarters (Chenopodium album, CHEAL); assay: as above; settings: post-emerge, phytotoxicity rating 0-100 at 14 days after application
# Text: as §1, §2, §3, §4, §5
# [15] = system: large crabgrass (Digitaria sanguinalis, DIGSA); assay: as above; settings: post-emerge, phytotoxicity rating 0-100 at 14 days after application
# Text: as §1, §2, §3, §4, §5
# [16] = system: redroot pigweed (Amaranthus retroflexus, AMARE); assay: as above; settings: post-emerge, phytotoxicity rating 0-100 at 14 days after application
# Text: as §1, §2, §3, §4, §5
# [17] = system: sicklepod (Cassia obtusifolia, CASOB); assay: as above; settings: post-emerge, phytotoxicity rating 0-100 at 14 days after application
# Text: as §1, §2, §3, §4, §5
# [18] = system: velvetleaf (Abutilon theophrasti, ABUTH); assay: as above; settings: post-emerge, phytotoxicity rating 0-100 at 14 days after application
# Text: as §1, §2, §3, §4, §5
# [19] = system: field corn (Zea mays L., var. Dekalb 535, CORN); assay: Post-emerge test, crop safety; settings: post-emerge, crop damage rating 0-100 at 14 days after application
# How it was run: (§7)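 Each test used a mechanized track sprayer delivering 187 l/ha of acetone solution at 15–1000 g ai/ha. Post-emerge foliage at 2–3 leaves was treated with added 0.25% v/v non-ionic surfactant and bottom-watered only. Injury was assessed on day 14, where 100 means total kill.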
# [20] = system: upland rice (Oryza sp., var. Tebonnet, RICE); assay: Post-emerge test, crop safety; settings: post-emerge, crop damage rating 0-100 at 14 days after application
# How it was run: as §7
smiles,measurement,setting,value
Cc1c(Cl)cc(F)c(-n2c(=O)cc(C(F)(F)F)n(C)c2=O)c1NC(=O)OCc1cccc([N+](=O)[O-])c1 [4-67],Pre-emerge Herbicidal Activity AMARE,[1]; rate 63 g ai/ha,100
same,Pre-emerge Herbicidal Activity AMARE,[1]; rate 250 g ai/ha,100
same,Pre-emerge Herbicidal Activity ECHCG,[2]; rate 63 g ai/ha,40
same,Pre-emerge Herbicidal Activity ECHCG,[2]; rate 250 g ai/ha,80
same,Pre-emerge Herbicidal Activity SETVI,[3]; rate 63 g ai/ha,90
same,Pre-emerge Herbicidal Activity SETVI,[3]; rate 250 g ai/ha,100
same,Pre-emerge Herbicidal Activity IPOHE,[4]; rate 63 g ai/ha,80
same,Pre-emerge Herbicidal Activity IPOHE,[4]; rate 250 g ai/ha,90
same,Pre-emerge Herbicidal Activity CHEAL,[5]; rate 63 g ai/ha,100
same,Pre-emerge Herbicidal Activity CHEAL,[5]; rate 250 g ai/ha,100
same,Pre-emerge Herbicidal Activity DIGSA,[6]; rate 63 g ai/ha,100
same,Pre-emerge Herbicidal Activity DIGSA,[6]; rate 250 g ai/ha,100
same,Pre-emerge Herbicidal Activity CASOB,[7]; rate 63 g ai/ha,40
same,Pre-emerge Herbicidal Activity CASOB,[7]; rate 250 g ai/ha,60
same,Pre-emerge Herbicidal Activity ABUTH,[8]; rate 63 g ai/ha,100
same,Pre-emerge Herbicidal Activity ABUTH,[8]; rate 250 g ai/ha,100
same,Pre-emerge Herbicidal Activity CORN,[9]; rate 63 g ai/ha,5
same,Pre-emerge Herbicidal Activity CORN,[9]; rate 250 g ai/ha,15
same,Pre-emerge Herbicidal Activity RICE,[10]; rate 63 g ai/ha,60
same,Pre-emerge Herbicidal Activity RICE,[10]; rate 250 g ai/ha,40
same,Post-emerge Herbicidal Activity ECHCG,[11]; 63 g ai/ha,40
same,Post-emerge Herbicidal Activity ECHCG,[11]; 250 g ai/ha,70
same,Post-emerge Herbicidal Activity SETVI,[12]; 63 g ai/ha,90
same,Post-emerge Herbicidal Activity SETVI,[12]; 250 g ai/ha,90
same,Post-emerge Herbicidal Activity IPOHE,[13]; 63 g ai/ha,100
same,Post-emerge Herbicidal Activity IPOHE,[13]; 250 g ai/ha,100
same,Post-emerge Herbicidal Activity CHEAL,[14]; 63 g ai/ha,100
same,Post-emerge Herbicidal Activity CHEAL,[14]; 250 g ai/ha,100
same,Post-emerge Herbicidal Activity DIGSA,[15]; 63 g ai/ha,70
same,Post-emerge Herbicidal Activity DIGSA,[15]; 250 g ai/ha,80
same,Post-emerge Herbicidal Activity AMARE,[16]; 63 g ai/ha,100
same,Post-emerge Herbicidal Activity AMARE,[16]; 250 g ai/ha,100
same,Post-emerge Herbicidal Activity CASOB,[17]; 63 g ai/ha,100
same,Post-emerge Herbicidal Activity CASOB,[17]; 250 g ai/ha,100
same,Post-emerge Herbicidal Activity ABUTH,[18]; 63 g ai/ha,100
same,Post-emerge Herbicidal Activity ABUTH,[18]; 250 g ai/ha,100
same,Post-emerge Herbicidal Activity CORN,[19]; 63 g ai/ha,55
same,Post-emerge Herbicidal Activity CORN,[19]; 250 g ai/ha,70
same,Post-emerge Herbicidal Activity RICE,[20]; 63 g ai/ha,50
same,Post-emerge Herbicidal Activity RICE,[20]; 250 g ai/ha,70
